Measured values taken from patent US20200370087A1, “METHOD FOR DETERMINING MICROBIAL SUSCEPTIBILITY TO ANTIBIOTIC AGENTS” (Ascilion AB, priority 2017, published 2020).

Assays:
[1] = system: Escherichia coli (ATCC 25922); assay: Glucose consumption susceptibility test, blood culture diluted in MHB with glucose (Example 1); assay type: cell-based; design: glucose concentration, t = 0 / glucose concentration, t = 60 / glucose concentration, t = 120 / glucose concentration, t = 180 / dC/dT (rate of change in glucose concentration) / glucose concentration, t = 240: unit not given here; details: for F = the rate of change in glucose concentration in relation to the reference / dC/dT (rate of change in glucose concentration) / glucose concentration, t = 0 / glucose concentration, t = 60 / glucose concentration, t = 120 / glucose concentration, t = 180 / glucose concentration, t = 240: E. coli; for glucose concentration, t = 0: 0 minutes; for glucose concentration, t = 60: 60 minutes; for glucose concentration, t = 120: 120 minutes; for glucose concentration, t = 180: 180 minutes; for glucose concentration, t = 240: 240 minutes
Description: (§1) Strains of Escherichia coli (ATCC 25922), Enterococcus faecalis (ATCC 29212) and Staphylococcus aureus (ATCC 29213) were inoculated in blood culture bottles (SVA, Uppsala, Sweden) and cultivated according to the manufacturer's instructions until positive.
(§2) Medium from each blood culture bottle was diluted 1:100 with cation adjusted Mueller-Hinton broth (SVA, Uppsala, Sweden) supplemented with glucose to a concentration of 1.0 mg/mL.
(§3) Glucose concentrations were measured at 0, 60, 120, 180, and 240 minutes using a WaveSense Jazz glucometer (AgaMatrix, Inc., Salem, N.H., USA) with accompanying test strips.
(§4) Susceptibility scores corresponding to MIC values were calculated as described above. A 80% threshold was applied, i.e. the lowest concentration of antibiotic that entailed a rate of change in glucose concentration that was equal to or less than 80% of the reference was selected as the Minimal Inhibitory Concentration. The rate of change was calculated between the measurements at 60 and 180 minutes.

[2] = system: Staphylococcus aureus (ATCC 29213); assay: as above; assay type: cell-based; design: glucose concentration, t = 0 / glucose concentration, t = 60 / glucose concentration, t = 120 / glucose concentration, t = 180 / glucose concentration, t = 240 / dC/dT (rate of change in glucose concentration): unit not given here; details: for F = the rate of change in glucose concentration in relation to the reference / dC/dT (rate of change in glucose concentration) / glucose concentration, t = 0 / glucose concentration, t = 60 / glucose concentration, t = 120 / glucose concentration, t = 180 / glucose concentration, t = 240: S. aureus; for glucose concentration, t = 0: 0 minutes; for glucose concentration, t = 60: 60 minutes; for glucose concentration, t = 120: 120 minutes; for glucose concentration, t = 180: 180 minutes; for glucose concentration, t = 240: 240 minutes
Description: as §1, §2, §3, §4

[3] = system: Staphylococcus aureus ATCC 29213; details: S.aureus, cited from earlier work

gentamicin
F = the rate of change in glucose concentration in relation to the reference ([1]; antibiotic 0.25 μg/mL): 139% | dC/dT (rate of change in glucose concentration) ([1]; antibiotic 0.25 μg/mL): 86 | glucose concentration, t = 0 ([1]; antibiotic 0.25 μg/mL): 149 | glucose concentration, t = 60 ([1]; antibiotic 0.25 μg/mL): 152 | glucose concentration, t = 120 ([1]; antibiotic 0.25 μg/mL): 144 | glucose concentration, t = 180 ([1]; antibiotic 0.25 μg/mL): 58 | F = the rate of change in glucose concentration in relation to the reference ([1]; antibiotic 0.5 μg/mL): 121% | dC/dT (rate of change in glucose concentration) ([1]; antibiotic 0.5 μg/mL): 75 | glucose concentration, t = 0 ([1]; antibiotic 0.5 μg/mL): 144 | glucose concentration, t = 60 ([1]; antibiotic 0.5 μg/mL): 147 | glucose concentration, t = 120 ([1]; antibiotic 0.5 μg/mL): 147 | glucose concentration, t = 180 ([1]; antibiotic 0.5 μg/mL): 72 | F = the rate of change in glucose concentration in relation to the reference ([1]; antibiotic 1 μg/mL): 77% | dC/dT (rate of change in glucose concentration) ([1]; antibiotic 1 μg/mL): 48 | glucose concentration, t = 0 ([1]; antibiotic 1 μg/mL): 144 | glucose concentration, t = 60 ([1]; antibiotic 1 μg/mL): 155 | glucose concentration, t = 120 ([1]; antibiotic 1 μg/mL): 148 | glucose concentration, t = 180 ([1]; antibiotic 1 μg/mL): 111 | glucose concentration, t = 240 ([1]; antibiotic 1 μg/mL): 53 | F = the rate of change in glucose concentration in relation to the reference ([1]; antibiotic 2 μg/mL): 9% | dC/dT (rate of change in glucose concentration) ([1]; antibiotic 2 μg/mL): 6 | glucose concentration, t = 60 ([1]; antibiotic 2 μg/mL): 161 | glucose concentration, t = 120 ([1]; antibiotic 2 μg/mL): 151 | glucose concentration, t = 180 ([1]; antibiotic 2 μg/mL): 143 | glucose concentration, t = 240 ([1]; antibiotic 2 μg/mL): 140 | F = the rate of change in glucose concentration in relation to the reference ([1]; antibiotic 4 μg/mL): 7% | dC/dT (rate of change in glucose concentration) ([1]; antibiotic 4 μg/mL): 5 | glucose concentration, t = 0 ([1]; antibiotic 4 μg/mL): 147 | glucose concentration, t = 60 ([1]; antibiotic 4 μg/mL): 163 | glucose concentration, t = 120 ([1]; antibiotic 4 μg/mL): 157 | glucose concentration, t = 180 ([1]; antibiotic 4 μg/mL): 148 | glucose concentration, t = 240 ([1]; antibiotic 4 μg/mL): 148 | F = the rate of change in glucose concentration in relation to the reference ([1]; antibiotic 8 μg/mL): 7% | dC/dT (rate of change in glucose concentration) ([1]; antibiotic 8 μg/mL): 5 | glucose concentration, t = 0 ([1]; antibiotic 8 μg/mL): 144 | glucose concentration, t = 60 ([1]; antibiotic 8 μg/mL): 156 | glucose concentration, t = 120 ([1]; antibiotic 8 μg/mL): 153 | glucose concentration, t = 180 ([1]; antibiotic 8 μg/mL): 150 | glucose concentration, t = 240 ([1]; antibiotic 8 μg/mL): 144 | F = the rate of change in glucose concentration in relation to the reference ([1]; antibiotic 16 μg/mL): 1% | dC/dT (rate of change in glucose concentration) ([1]; antibiotic 16 μg/mL): 1 | glucose concentration, t = 0 ([1]; antibiotic 16 μg/mL): 143 | glucose concentration, t = 60 ([1]; antibiotic 16 μg/mL): 155 | glucose concentration, t = 120 ([1]; antibiotic 16 μg/mL): 152 | glucose concentration, t = 180 ([1]; antibiotic 16 μg/mL): 149 | glucose concentration, t = 240 ([1]; antibiotic 16 μg/mL): 153 | F = the rate of change in glucose concentration in relation to the reference ([1]; antibiotic 32 μg/mL): 6% | dC/dT (rate of change in glucose concentration) ([1]; antibiotic 32 μg/mL): 4 | glucose concentration, t = 0 ([1]; antibiotic 32 μg/mL): 148 | glucose concentration, t = 60 ([1]; antibiotic 32 μg/mL): 158 | glucose concentration, t = 120 ([1]; antibiotic 32 μg/mL): 155 | glucose concentration, t = 180 ([1]; antibiotic 32 μg/mL): 150 | glucose concentration, t = 240 ([1]; antibiotic 32 μg/mL): 147 | MIC, Measured ([1]; E.coli, 80% threshold of reference rate of change, 60 to 180 minutes, N/A = not susceptible, no MIC value can be calculated): 1 µg/mL | F = the rate of change in glucose concentration in relation to the reference ([2]; antibiotic 0.25 μg/mL): 66% | dC/dT (rate of change in glucose concentration) ([2]; antibiotic 0.25 μg/mL): 22 | glucose concentration, t = 0 ([2]; antibiotic 0.25 μg/mL): 143 | glucose concentration, t = 60 ([2]; antibiotic 0.25 μg/mL): 146 | glucose concentration, t = 120 ([2]; antibiotic 0.25 μg/mL): 140 | glucose concentration, t = 180 ([2]; antibiotic 0.25 μg/mL): 102 | glucose concentration, t = 240 ([2]; antibiotic 0.25 μg/mL): 55 | F = the rate of change in glucose concentration in relation to the reference ([2]; antibiotic 0.5 μg/mL): 57% | dC/dT (rate of change in glucose concentration) ([2]; antibiotic 0.5 μg/mL): 19 | glucose concentration, t = 0 ([2]; antibiotic 0.5 μg/mL): 143 | glucose concentration, t = 60 ([2]; antibiotic 0.5 μg/mL): 154 | glucose concentration, t = 120 ([2]; antibiotic 0.5 μg/mL): 137 | glucose concentration, t = 180 ([2]; antibiotic 0.5 μg/mL): 116 | glucose concentration, t = 240 ([2]; antibiotic 0.5 μg/mL): 78 | F = the rate of change in glucose concentration in relation to the reference ([2]; antibiotic 1 μg/mL): 30% | dC/dT (rate of change in glucose concentration) ([2]; antibiotic 1 μg/mL): 10 | glucose concentration, t = 0 ([2]; antibiotic 1 μg/mL): 137 | glucose concentration, t = 60 ([2]; antibiotic 1 μg/mL): 154 | glucose concentration, t = 120 ([2]; antibiotic 1 μg/mL): 146 | glucose concentration, t = 180 ([2]; antibiotic 1 μg/mL): 134 | glucose concentration, t = 240 ([2]; antibiotic 1 μg/mL): 119 | F = the rate of change in glucose concentration in relation to the reference ([2]; antibiotic 2 μg/mL): 12% | dC/dT (rate of change in glucose concentration) ([2]; antibiotic 2 μg/mL): 4 | glucose concentration, t = 0 ([2]; antibiotic 2 μg/mL): 144 | glucose concentration, t = 60 ([2]; antibiotic 2 μg/mL): 154 | glucose concentration, t = 180 ([2]; antibiotic 2 μg/mL): 146 | glucose concentration, t = 240 ([2]; antibiotic 2 μg/mL): 148 | F = the rate of change in glucose concentration in relation to the reference ([2]; antibiotic 4 μg/mL): 10% | dC/dT (rate of change in glucose concentration) ([2]; antibiotic 4 μg/mL): 4 | glucose concentration, t = 60 ([2]; antibiotic 4 μg/mL): 157 | glucose concentration, t = 120 ([2]; antibiotic 4 μg/mL): 147 | glucose concentration, t = 180 ([2]; antibiotic 4 μg/mL): 150 | glucose concentration, t = 240 ([2]; antibiotic 4 μg/mL): 149 | F = the rate of change in glucose concentration in relation to the reference ([2]; antibiotic 8 μg/mL): 0% | dC/dT (rate of change in glucose concentration) ([2]; antibiotic 8 μg/mL): 0 | glucose concentration, t = 0 ([2]; antibiotic 8 μg/mL): 142 | glucose concentration, t = 60 ([2]; antibiotic 8 μg/mL): 154 | glucose concentration, t = 120 ([2]; antibiotic 8 μg/mL): 150 | glucose concentration, t = 180 ([2]; antibiotic 8 μg/mL): 154 | glucose concentration, t = 240 ([2]; antibiotic 8 μg/mL): 140 | F = the rate of change in glucose concentration in relation to the reference ([2]; antibiotic 16 μg/mL): 0% | dC/dT (rate of change in glucose concentration) ([2]; antibiotic 16 μg/mL): 0 | glucose concentration, t = 0 ([2]; antibiotic 16 μg/mL): 139 | glucose concentration, t = 60 ([2]; antibiotic 16 μg/mL): 145 | glucose concentration, t = 120 ([2]; antibiotic 16 μg/mL): 150 | glucose concentration, t = 180 ([2]; antibiotic 16 μg/mL): 145 | glucose concentration, t = 240 ([2]; antibiotic 16 μg/mL): 145 | F = the rate of change in glucose concentration in relation to the reference ([2]; antibiotic 32 μg/mL): 3% | dC/dT (rate of change in glucose concentration) ([2]; antibiotic 32 μg/mL): 1 | glucose concentration, t = 0 ([2]; antibiotic 32 μg/mL): 144 | glucose concentration, t = 60 ([2]; antibiotic 32 μg/mL): 148 | glucose concentration, t = 120 ([2]; antibiotic 32 μg/mL): 145 | glucose concentration, t = 180 ([2]; antibiotic 32 μg/mL): 146 | glucose concentration, t = 240 ([2]; antibiotic 32 μg/mL): 145 | MIC, Measured ([2]; S.aureus, 80% threshold of reference rate of change, 60 to 180 minutes): 0.25 µg/mL | MIC, EUCAST, range in parentheses ([3]; range obtained by EUCAST from ISO 20776-1: 2006): (0.125-1) ug/mL | MIC, EUCAST ([3]; reference value, Mueller-Hinton agar, incubation 18±2 h): 0.25 to 0.5 µg/mL
